According to US7268128B2, “1,3,5-trisubstituted-5-phenyl and 5-pyridyl pyrazolopyrimidinone derivatives having PDE7 inhibiting action” (Ausbio Pharma Co., Ltd., priority 2001, dated 2007):
Where a name gives a salt, the structure may show the parent alone.

molecular target: T1, PDE7 (type VII phosphodiesterase) (Homo sapiens, UniProt Q13946); experiment: PDE7 inhibiting activity (3H-cAMP hydrolysis, active fraction from MOLT-4 cells); assay type: biochemical; conditions: PDE7 fraction from MOLT-4 cells, 0.064 μM cAMP, 10 μM rolipram present, 2 hours at 25° C.; read-out: IC50 values for phosphodiesterase inhibiting activities (PDE7)
T1 construct: endogenous in cells; host or cells: MOLT-4 (ATCC CRL-1582), soluble fraction, HiTrapQ anion-exchange fraction
Outline: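 PDE7 from MOLT-4 cell soluble fraction, HiTrapQ NaCl-gradient purified. Compounds reacted 2 h at 25° C in 20 mM tris-HCl pH 7.5, 1 mM MgCl2, 0.1 μCi 3H-cAMP (0.064 μM cAMP), 10 μM rolipram, 5′-nucleotidase; QAE-Sephadex-separated supernatant counted.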

T1 sequence (Q13946 whole entry): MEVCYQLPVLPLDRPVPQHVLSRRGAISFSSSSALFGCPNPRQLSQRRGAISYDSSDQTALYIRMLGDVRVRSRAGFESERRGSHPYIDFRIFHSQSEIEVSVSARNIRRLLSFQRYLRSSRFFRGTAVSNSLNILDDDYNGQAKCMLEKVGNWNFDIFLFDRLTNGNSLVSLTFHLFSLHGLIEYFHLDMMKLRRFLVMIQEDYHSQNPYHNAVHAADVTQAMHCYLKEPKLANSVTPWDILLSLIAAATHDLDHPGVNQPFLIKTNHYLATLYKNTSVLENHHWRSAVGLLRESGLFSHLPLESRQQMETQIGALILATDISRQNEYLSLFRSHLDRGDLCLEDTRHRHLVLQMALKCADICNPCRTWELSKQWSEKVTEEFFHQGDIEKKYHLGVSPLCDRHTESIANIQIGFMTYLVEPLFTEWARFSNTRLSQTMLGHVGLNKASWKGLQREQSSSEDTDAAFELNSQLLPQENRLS

CNC1CCN(c2ccc(-c3nc4c(c(C5CCCCC5)nn4C)c(=O)[nH]3)cc2)CC1 [Example 189, 3-Cyclohexyl-1-methyl-6-{4-[4-(methylamino)-1-piperidinyl]phenyl}-1,5-dihydro-4H-pyrazolo[3,4-d]pyrimidin-4-one monomethanesulfonate] and CCn1nc(C2CCCCC2)c2c(=O)[nH]c(-c3ccc(N4CCC(NC)CC4)cc3OC)nc21 [Example 196] cannot be ordered by IC50: no more than 1000 nM for the first, no more than 1000 nM for the second.

COc1cc(S(=O)(=O)N2CCS(=O)(=O)CC2)ccc1-c1nc2c(c(C3CCCCC3)nn2C)c(=O)[nH]1 [Example 191, 3-Cyclohexyl-6-{4-[(1,1-dioxido-4-thiomorpholinyl)sulfonyl]-2-methoxyphenyl}-1-methyl-1,5-dihydro-4H-pyrazolo[3,4-d]pyrimidin-4-one] and COc1cc(N2CCS(=O)(=O)CC2)ccc1-c1nc2c(c(C3CCCCC3)nn2C)c(=O)[nH]1 [Example 192, 3-Cyclohexyl-6-[4-(1,1-dioxido-4-thiomorpholinyl)-2-methoxyphenyl]-1-methyl-1,5-dihydro-4H-pyrazolo[3,4-d]pyrimidin-4-one] cannot be ordered by IC50: no more than 1000 nM for the first, no more than 10 nM for the second.

CCn1nc(C2CCCCC2)c2c(=O)[nH]c(-c3ccc(N4CCN(C)CC4)cc3OC)nc21 [Example 194, 3-Cyclohexyl-1-ethyl-6-[2-methoxy-4-(4-methyl-1-piperazinyl)phenyl]-1,5-dihydro-4H-pyrazolo[3,4-d]pyrimidin-4-one] and CCn1nc(C2CCCCC2)c2c(=O)[nH]c(-c3ccc(S(=O)(=O)N4CCCN(C)CC4)cc3OC)nc21 [Example 208, 3-Cyclohexyl-1-ethyl-6-{2-methoxy-4-[(4-methyl-1,4-diazepan-1-yl)sulfonyl]phenyl}-1,5-dihydro-4H-pyrazolo[3,4-d]pyrimidin-4-one] cannot be ordered by IC50: no more than 1000 nM for the first, no more than 1000 nM for the second.

COc1cc(S(=O)(=O)N2CCCN(C)CC2)ccc1-c1nc2c(C)nn(C3CCCCC3)c2c(=O)[nH]1 [Example 198, 1-Cyclohexyl-5-{2-methoxy-4-[(4-methyl-1,4-diazepan-1-yl)sulfonyl]phenyl}-3-methyl-1,6-dihydro-7H-pyrazolo[4,3-d]pyrimidin-7-one] and COc1cc(S(=O)(=O)N2CCN(C)CC2)ccc1-c1nc2c(C)nn(C3CCCCC3)c2c(=O)[nH]1 [Example 214, 1-Cyclohexyl-5-{2-methoxy-4-[(4-methyl-1-piperazinyl)sulfonyl]phenyl}-3-methyl-1,6-dihydro-7H-pyrazolo[4,3-d]pyrimidin-7-one] cannot be ordered by IC50: no more than 1000 nM for the first, no more than 1000 nM for the second.

COc1cc(S(=O)(=O)N2CCC(O)CC2)ccc1-c1nc2c(C)nn(C3CCCCC3)c2c(=O)[nH]1 [Example 199, 1-Cyclohexyl-5-{4-[(4-hydroxy-1-piperidinyl)sulfonyl]-2-methoxyphenyl}-3-methyl-1,6-dihydro-7H-pyrazolo[4,3-d]pyrimidin-7-one] and CNC1CCN(S(=O)(=O)c2ccc(-c3nc4c(C)nn(C5CCCCC5)c4c(=O)[nH]3)c(OC)c2)CC1 [Example 222, 1-Cyclohexyl-5-(2-methoxy-4-{[4-(methylamino)-1-piperidinyl]sulfonyl}phenyl)-3-methyl-1,6-dihydro-7H-pyrazolo[4,3-d]pyrimidin-7-one] cannot be ordered by IC50: no more than 1000 nM for the first, no more than 1000 nM for the second.

COc1cc(S(=O)(=O)NCCO)ccc1-c1nc2c(C)nn(C3CCCCC3)c2c(=O)[nH]1 [Example 200, 4-(1-Cyclohexyl-3-methyl-7-oxo-6,7-dihydro-1H-pyrazolo[4,3-d]pyrimidin-5-yl)-N-(2-hydroxyethyl)-3-methoxybenzenesulfonamide] and CNCCNS(=O)(=O)c1ccc(-c2nc3c(C)nn(C4CCCCC4)c3c(=O)[nH]2)c(OC)c1 [Example 210-2, 4-(1-Cyclohexyl-3-methyl-7-oxo-6,7-dihydro-1H-pyrazolo[4,3-d]pyrimidin-5-yl)-3-methoxy-N-[2-(methylamino)ethyl]benzenesulfonamide] cannot be ordered by IC50: no more than 1000 nM for the first, no more than 1000 nM for the second.

CNS(=O)(=O)c1ccc(-c2nc3c(C)nn(C4CCCCC4)c3c(=O)[nH]2)c(OC)c1 [Example 201, 4-(1-Cyclohexyl-3-methyl-7-oxo-6,7-dihydro-1H-pyrazolo[4,3-d]pyrimidin-5-yl)-3-methoxy-N-methylbenzenesulfonamide] and COc1cc(S(=O)(=O)NCCN(C)C)ccc1-c1nc2c(C)nn(C3CCCCC3)c2c(=O)[nH]1 [Example 211, 4-(1-Cyclohexyl-3-methyl-7-oxo-6,7-dihydro-1H-pyrazolo[4,3-d]pyrimidin-5-yl)-N-[2-(dimethylamino)ethyl]-3-methoxybenzenesulfonamide] cannot be ordered by IC50: no more than 1000 nM for the first, no more than 1000 nM for the second.

COc1cc(S(=O)(=O)N2CCCNCC2)ccc1-c1nc2c(C)nn(C3CCCCC3)c2c(=O)[nH]1 [Example 203, 1-Cyclohexyl-5-[4-(1,4-diazepan-1-ylsulfonyl)-2-methoxyphenyl]-3-methyl-1,6-dihydro-7H-pyrazolo[4,3-d]pyrimidin-7-one monomethanesulfonate] and COc1cc(S(=O)(=O)N2CCNCC2)ccc1-c1nc2c(C)nn(C3CCCCC3)c2c(=O)[nH]1 [Example 217, 1-Cyclohexyl-5-[2-methoxy-4-(1-piperazinylsulfonyl)phenyl]-3-methyl-1,6-dihydro-7H-pyrazolo[4,3-d]pyrimidin-7-one] cannot be ordered by IC50: no more than 1000 nM for the first, no more than 1000 nM for the second.

CNS(=O)(=O)c1ccc(-c2nc3c(c(C4CCCCC4)nn3C)c(=O)[nH]2)c(OC)c1 [Example 204, 4-(3-Cyclohexyl-1-methyl-4-oxo-4,5-dihydro-1H-pyrazolo[3,4-d]pyrimidin-6-yl)-3-methoxy-N-methylbenzenesulfonamide] and CCn1nc(C2CCCCC2)c2c(=O)[nH]c(-c3ccc(S(=O)(=O)N4CCC(O)CC4)cc3OC)nc21 [Example 207, 3-Cyclohexyl-1-ethyl-6-{4-[(4-hydroxy-1-piperidinyl)sulfonyl]-2-methoxyphenyl}-1,5-dihydro-4H-pyrazolo[3,4-d]pyrimidin-4-one] cannot be ordered by IC50: no more than 1000 nM for the first, no more than 1000 nM for the second.

CCn1nc(C2CCCCC2)c2c(=O)[nH]c(-c3ccc(S(=O)(=O)N4CCCNCC4)cc3OC)nc21 [Example 209, 3-Cyclohexyl-6-[4-(1,4-diazepan-1-ylsulfonyl)-2-methoxyphenyl]-1-ethyl-1,5-dihydro-4H-pyrazolo[3,4-d]pyrimidin-4-one] and CCN1CCN(S(=O)(=O)c2ccc(-c3nc4c(C)nn(C5CCCCC5)c4c(=O)[nH]3)c(OC)c2)CC1 [Example 218, 1-Cyclohexyl-5-{4-[(4-ethyl-1-piperazinyl)sulfonyl]-2-methoxyphenyl}-3-methyl-1,6-dihydro-7H-pyrazolo[4,3-d]pyrimidin-7-one] cannot be ordered by IC50: no more than 1000 nM for the first, no more than 1000 nM for the second.

COc1cc(S(=O)(=O)N(C)CCN)ccc1-c1nc2c(C)nn(C3CCCCC3)c2c(=O)[nH]1 [Example 210-1, N-(2-aminoethyl)-4-(1-cyclohexyl-3-methyl-7-oxo-6,7-dihydro-1H-pyrazolo[4,3-d]pyrimidin-5-yl)-3-methoxy-N-methylbenzenesulfonamide] and COc1cc(S(=O)(=O)N(C)CCO)ccc1-c1nc2c(C)nn(C3CCCCC3)c2c(=O)[nH]1 [Example 213, 4-(1-Cyclohexyl-3-methyl-7-oxo-6,7-dihydro-1H-pyrazolo[4,3-d]pyrimidin-5-yl)-N-(2-hydroxyethyl)-3-methoxy-N-methylbenzenesulfonamide] cannot be ordered by IC50: no more than 1000 nM for the first, no more than 1000 nM for the second.

CNCCN(C)S(=O)(=O)c1ccc(-c2nc3c(C)nn(C4CCCCC4)c3c(=O)[nH]2)c(OC)c1 [Example 212, 4-(1-Cyclohexyl-3-methyl-7-oxo-6,7-dihydro-1H-pyrazolo[4,3-d]pyrimidin-5-yl)-3-methoxy-N-methyl-N-[2-(methylamino)ethyl]benzenesulfonamide] and CNCCCN(C)S(=O)(=O)c1ccc(-c2nc3c(C)nn(C4CCCCC4)c3c(=O)[nH]2)c(OC)c1 [Example 215, 4-(1-Cyclohexyl-3-methyl-7-oxo-6,7-dihydro-1H-pyrazolo[4,3-d]pyrimidin-5-yl)-3-methoxy-N-methyl-N-[3-(methylamino)propyl]benzenesulfonamide] cannot be ordered by IC50: no more than 1000 nM for the first, no more than 1000 nM for the second.

COc1cc(S(=O)(=O)N2CCN(CCO)CC2)ccc1-c1nc2c(C)nn(C3CCCCC3)c2c(=O)[nH]1 [Example 216, 1-Cyclohexyl-5-(4-{[4-(2-hydroxyethyl)-1-piperazinyl]sulfonyl}-2-methoxyphenyl)-3-methyl-1,6-dihydro-7H-pyrazolo[4,3-d]pyrimidin-7-one] and COc1cc(S(=O)(=O)NC2CCNCC2)ccc1-c1nc2c(C)nn(C3CCCCC3)c2c(=O)[nH]1 [Example 220, 4-(1-Cyclohexyl-3-methyl-7-oxo-6,7-dihydro-1H-pyrazolo[4,3-d]pyrimidin-5-yl)-3-methoxy-N-(4-piperidinyl)benzenesulfonamide monohydrochloride] cannot be ordered by IC50: no more than 1000 nM for the first, no more than 1000 nM for the second.

COc1cc(NC2CCNCC2)ccc1-c1nc2c(C)nn(C3CCCCC3)c2c(=O)[nH]1 [Example 224, 1-Cyclohexyl-5-[2-methoxy-4-(4-piperidinylamino)phenyl]-3-methyl-1,6-dihydro-7H-pyrazolo[4,3-d]pyrimidin-7-one] and COCCNc1ccc(-c2nc3c(C)nn(C4CCCCC4)c3c(=O)[nH]2)c(OC)c1 [Example 225, 1-Cyclohexyl-5-{2-methoxy-4-[(2-methoxyethyl)amino]phenyl}-3-methyl-1,6-dihydro-7H-pyrazolo[4,3-d]pyrimidin-7-one] cannot be ordered by IC50: no more than 10 nM for the first, no more than 10 nM for the second.

COc1cc(/C=C/C(=O)O)ccc1-c1nc2c(C)nn(C3CCCCC3)c2c(=O)[nH]1 [Example 227, (2E)-3-[4-(1-cyclohexyl-3-methyl-7-oxo-6,7-dihydro-1H-pyrazolo[4,3-d]pyrimidin-5-yl)-3-methoxyphenyl]-2-propenic acid] and COc1cc(CCC(=O)O)ccc1-c1nc2c(C)nn(C3CCCCC3)c2c(=O)[nH]1 [Example 229, 3-[4-(1-Cyclohexyl-3-methyl-7-oxo-6,7-dihydro-1H-pyrazolo[4,3-d]pyrimidin-5-yl)-3-methoxyphenyl]propanic acid] cannot be ordered by IC50: no more than 10 nM for the first, no more than 1000 nM for the second.
